In patent US20180002319A1, “MACROCYCLIC PICOLINAMIDE COMPOUNDS WITH FUNGICIDAL ACTIVITY” (DOW AGROSCIENCES LLC, priority 2014, published 2018):
Where two headings read alike, the source gives them in different places.

What was measured:
Zymoseptoria tritici = assay: Leaf Blotch of Wheat (SEPTTR) fungicidal activity; assay type: in vivo; conditions: High Volume application, 100 ppm, wheat leaf blotch
In short: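 Wheat seedlings (Yuma, first leaf emerged) were sprayed to run-off with compound in acetone/water containing Triton X-100 and inoculated with Z. tritici spores before or after treatment. Percent disease control comes from 0–100% severity on treated versus untreated plants.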

Puccinia triticina = assay: Wheat Brown Rust (PUCCRT) fungicidal activity; assay type: in vivo; conditions: High Volume application, 100 ppm
In short: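 Yuma wheat seedlings at first-leaf stage sprayed to run-off with acetone/water (Triton X-100) solutions, inoculated with P. triticina spores before or after treatment. Overnight dark dew at 22° C, then greenhouse at 24° C; percent disease control from severity versus untreated plants.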

[1] = 24 h, 1 day protectant, read-out: SEPTTR disease control, 1DP (1 Day Protectant)
[2] = 72 h, 3 day curative, read-out: SEPTTR disease control, 3DC (3 Day Curative)
[3] = 24 h, 1 day protectant, read-out: PUCCRT disease control, 1DP (1 Day Protectant)
[4] = 72 h, 3 day curative, read-out: PUCCRT disease control, 3DC (3 Day Curative)

| SMILES | pest or weed control at 100 ppm (Zymoseptoria tritici; [1]) [%] | pest or weed control at 100 ppm (Zymoseptoria tritici; [2]) [%] | pest or weed control at 100 ppm (Puccinia triticina; [3]) [%] | pest or weed control at 100 ppm (Puccinia triticina; [4]) [%] |
| --- | --- | --- | --- | --- |
| CCCCO[C@H]1CCOC[C@H](NC(=O)c2nccc(OC)c2O)C(=O)O[C@@H](C)[C@@H]1OC(=O)c1ccccc1 [Compound 84] | < 80 | > 80 | > 80 | > 80 |
| CCCCO[C@H]1CCOC[C@H](NC(=O)c2nccc(OC)c2O)C(=O)O[C@@H](C)[C@@H]1OC(=O)C1CC1 [Compound 85] | < 80 | > 80 | > 80 | > 80 |
| COc1ccnc(C(=O)N[C@H]2COCC[C@H](OCC(C)C)[C@@H](OCC(C)C)[C@H](C)OC2=O)c1O [Compound 86] | < 80 | > 80 | > 80 | < 80 |
| CCCCO[C@H]1CCOC[C@H](NC(=O)c2nccc(OC)c2O)C(=O)O[C@@H](C)[C@@H]1OCC(C)C [Compound 87] | > 80 | < 80 | > 80 | > 80 |
| COc1ccnc(C(=O)N[C@H]2CCCC[C@H](OCc3ccccc3)[C@@H](OCc3ccccc3)[C@H](C)OC2=O)c1O [Compound 88] | > 80 | < 80 | > 80 | – |
| COc1ccnc(C(=O)N[C@H]2CCCC[C@H](OCC(C)C)[C@@H](OCC(C)C)[C@H](C)OC2=O)c1O [Compound 89] | < 80 | < 80 | < 80 | – |
| COc1ccnc(C(=O)N[C@H]2CCCC[C@H](Oc3ccccc3)[C@@H](OCC(C)C)[C@H](C)OC2=O)c1O [Compound 90] | > 80 | < 80 | > 80 | < 80 |
| COc1ccnc(C(=O)N[C@H]2CCCC[C@H](OC)[C@@H](Oc3ccccc3)[C@H](C)OC2=O)c1O [Compound 91] | > 80 | > 80 | > 80 | > 80 |
| COc1ccnc(C(=O)N[C@H]2CCCC[C@H](OC)[C@@H](OCC(C)C)[C@H](C)OC2=O)c1O [Compound 92] | > 80 | > 80 | > 80 | > 80 |
| COc1ccnc(C(=O)N[C@H]2CCCC[C@H](OCC(C)C)[C@@H](Oc3ccccc3)[C@H](C)OC2=O)c1O [Compound 93] | > 80 | < 80 | > 80 | > 80 |
| CCCCCO[C@H]1[C@H](C)OC(=O)[C@@H](NC(=O)c2nccc(OC)c2O)CCCC[C@@H]1OC(=O)c1ccccc1 [Compound 94] | > 80 | < 80 | > 80 | < 80 |
| CCCCCO[C@H]1[C@H](C)OC(=O)[C@@H](NC(=O)c2nccc(OC)c2O)CCCC[C@@H]1Oc1ccccc1 [Compound 96] | < 80 | < 80 | > 80 | < 80 |
| CCCO[C@H]1[C@H](C)OC(=O)[C@@H](NC(=O)c2nccc(OC)c2O)CCCC[C@@H]1Oc1ccccc1 [Compound 97] | > 80 | < 80 | > 80 | > 80 |
| COc1ccnc(C(=O)N[C@H]2CCCC[C@H](Oc3ccccc3)[C@@H](Oc3ccccc3)[C@H](C)OC2=O)c1O [Compound 98] | > 80 | < 80 | > 80 | < 80 |
| CCCO[C@H]1CCCC[C@H](NC(=O)c2nccc(OC)c2O)C(=O)O[C@@H](C)[C@@H]1Oc1ccccc1 [Compound 100] | > 80 | > 80 | > 80 | > 80 |
| COc1ccnc(C(=O)N[C@H]2COCC[C@H](Cc3ccccc3)[C@@H](OCC(C)C)[C@H](C)OC2=O)c1O [Compound 101] | < 80 | < 80 | < 80 | < 80 |
| COc1ccnc(C(=O)N[C@H]2CCCC[C@H](Cc3ccccc3)[C@@H](OCC(C)C)[C@H](C)OC2=O)c1O [Compound 102] | > 80 | – | > 80 | < 80 |
| CCC[C@H]1CCCC[C@H](NC(=O)c2nccc(OC)c2O)C(=O)O[C@@H](C)[C@@H]1OC(=O)C(C)C [Compound 103] | < 80 | – | > 80 | < 80 |
